Laboratory results published in the SangsterLogP compilation.

Assay: method code SF-AS, from DOI: 10.2298/ciceq100329044p
Settings: pH 7.4

SMILES	logD
Cc1ccc(C(=O)n2c(N)nc3ccccc32)cc1	3.35
Cc1ccc(Cn2c(C)nc3ccccc32)cc1	4.01
Cc1nc2ccccc2n1C(=O)c1ccc(Cl)cc1	3.95
Cc1nc2ccccc2n1Cc1ccc(Cl)cc1	4.07
Cc1ccc(C(=O)n2c(C)nc3ccccc32)cc1	3.87
Cc1nc2ccccc2n1Cc1ccccc1	3.51

Second part, the molecule after the results:

logD	SMILES
2.9	Nc1nc2ccccc2n1C(=O)c1ccccc1
3.38	Cc1nc2ccccc2n1C(=O)c1ccccc1
3.45	Nc1nc2ccccc2n1C(=O)c1ccc(Cl)cc1
